Patent EP0336068A1, “Phenoxyalkoxy-3,4-dihydro-2H-1-benzopyran derivatives” (F. HOFFMANN-LA ROCHE AG, priority 1988, dated 1989)

System: Antibiotic-Induced Colitis in Hamsters
Test: Antibiotic-induced colitis in hamsters (in vivo), survival
Set-up: species or system Syrian hamsters
Conditions: given orally at 20 micromoles per kilogram; colitis induced by 175 mg/kg clindamycin intraperitoneally; first dose about seven hours after injection, then twice a day for four more days; Hazard Ratio >1.0 = therapy prolongs survival versus vehicle
Description: Antibiotic-Induced Colitis in Hamsters (In Vivo):
Male Syrian hamsters (LUG), weighing 80 to 120 g, were each given a single dose of 175 mg/kg of clindamycin-phosphate or of clindamycin-hydrochloride intraperitoneally, to induce colitis. Approximately seven hours after injection, the animals wer given the test compound orally or intraperitoneally and the therapy was continued twice a day for a period of four more days. The effect of the therapy was measured by use of the Hazard Ratio, which is the ratio of the mortality of the animals treated with the test compound contained in a vehicle to the mortality of the animals treated with the vehicle containing none of the test compound. The mortality was determined for the test compound-treated groups and for the vehicle-treated groups, respectively, twice daily, and was evaluated by comparing the survival curves of each group. The Kaplan-Meier estimate of the survival curve was calculated for each group and the Mantel-Cox (logrank) test was used to compare the survival curve of each test compound-treated (therapy) group to that of the corresponding vehicle control group.

With `CCCCCCCCOC(=O)C1CCc2cc(C(C)=O)c(OCCCCCOc3ccc(C(C)=O)c(O)c3CCC)cc2O1` (racemic) [racemic 6-acetyl-7-[5-(4-acetyl-3-hydroxy-2-propylphenoxy)pentyloxy]-3,4-dihydro-2H-1-benzopyran-2-carboxylic acid n-octyl ester] the “Hazard Ratio” value was 2.0.
